Measured values taken from ChEMBL document CHEMBL4507274 (2021).

Experiments:
Conditions in all cases: Compound concentration 100.0 nM
[1] = molecular target: AP2-associated protein kinase 1 (Homo sapiens) (UniProt Q2M2I8)
[2] = molecular target: Tyrosine-protein kinase ABL2 (Homo sapiens) (UniProt P42684)
[3] = molecular target: Bone morphogenetic protein receptor type-2 (Homo sapiens) (UniProt Q13873)
[4] = molecular target: Cyclin-dependent kinase 3 (Homo sapiens) (UniProt Q00526)
[5] = molecular target: Cyclin-dependent kinase-like 2 (Homo sapiens) (UniProt Q92772)
[6] = molecular target: Casein kinase II subunit alpha (Homo sapiens) (UniProt P68400)
[7] = molecular target: Fibroblast growth factor receptor 3 (Homo sapiens) (UniProt P22607)
[8] = tested on: Fibroblast growth factor receptor 3 (Homo sapiens), P22607 [G697C]
[9] = tested on: Receptor-type tyrosine-protein kinase FLT3 (Homo sapiens), P36888 [N841I]
[10] = molecular target: Cyclin-G-associated kinase (Homo sapiens) (UniProt O14976)
[11] = molecular target: Tyrosine-protein kinase ITK/TSK (Homo sapiens) (UniProt Q08881)
[12] = tested on: Mast/stem cell growth factor receptor Kit (Homo sapiens), P10721 [A829P]
[13] = molecular target: LIM domain kinase 2 (Homo sapiens) (UniProt P53671)
[14] = tested on: Leucine-rich repeat serine/threonine-protein kinase 2 (Homo sapiens), Q5S007 [G2019S]
[15] = molecular target: Tyrosine-protein kinase Lyn (Homo sapiens) (UniProt P07948)
[16] = molecular target: Serine/threonine-protein kinase MAK (Homo sapiens) (UniProt P20794)
[17] = molecular target: Maternal embryonic leucine zipper kinase (Homo sapiens) (UniProt Q14680)
[18] = molecular target: Cyclin-dependent kinase 14 (Homo sapiens) (UniProt O94921)
[19] = molecular target: 1-phosphatidylinositol 3-phosphate 5-kinase (Homo sapiens) (UniProt Q9Y2I7)
[20] = molecular target: Serine/threonine-protein kinase pim-1 (Homo sapiens) (UniProt P11309)
[21] = molecular target: Serine/threonine-protein kinase N2 (Homo sapiens) (UniProt Q16513)
[22] = molecular target: Interferon-induced, double-stranded RNA-activated protein kinase (Homo sapiens) (UniProt P19525)
[23] = molecular target: Protein-tyrosine kinase 2-beta (Homo sapiens) (UniProt Q14289)
[24] = molecular target: Ribosomal protein S6 kinase alpha-4 (Homo sapiens) (UniProt O75676)
[25] = molecular target: Serine/threonine-protein kinase SBK1 (Homo sapiens) (UniProt Q52WX2)
[26] = molecular target: T1, Serine/threonine-protein kinase Sgk1 (Homo sapiens) (UniProt O00141)
T1 sequence (whole entry): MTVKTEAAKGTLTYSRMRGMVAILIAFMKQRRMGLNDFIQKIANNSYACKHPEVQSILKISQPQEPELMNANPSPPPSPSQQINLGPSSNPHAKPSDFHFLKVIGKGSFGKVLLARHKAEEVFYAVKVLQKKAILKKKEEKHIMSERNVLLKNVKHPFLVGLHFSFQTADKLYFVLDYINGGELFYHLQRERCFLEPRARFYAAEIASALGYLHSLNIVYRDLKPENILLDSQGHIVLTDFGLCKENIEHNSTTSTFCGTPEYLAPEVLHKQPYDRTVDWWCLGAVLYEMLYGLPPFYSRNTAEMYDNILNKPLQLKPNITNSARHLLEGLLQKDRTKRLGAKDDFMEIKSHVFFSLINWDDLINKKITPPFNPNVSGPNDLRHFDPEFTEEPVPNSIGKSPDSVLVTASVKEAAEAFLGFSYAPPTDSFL

[27] = molecular target: Serine/threonine-protein kinase 16 (Homo sapiens) (UniProt O75716)
[28] = molecular target: Serine/threonine-protein kinase TBK1 (Homo sapiens) (UniProt Q9UHD2)
[29] = molecular target: Serine/threonine-protein kinase tousled-like 1 (Homo sapiens) (UniProt Q9UKI8)
[30] = molecular target: Serine/threonine-protein kinase VRK2 (Homo sapiens) (UniProt Q86Y07)
[31] = molecular target: T2, Tyrosine-protein kinase ZAP-70 (Homo sapiens) (UniProt P43403)
T2 sequence (whole entry): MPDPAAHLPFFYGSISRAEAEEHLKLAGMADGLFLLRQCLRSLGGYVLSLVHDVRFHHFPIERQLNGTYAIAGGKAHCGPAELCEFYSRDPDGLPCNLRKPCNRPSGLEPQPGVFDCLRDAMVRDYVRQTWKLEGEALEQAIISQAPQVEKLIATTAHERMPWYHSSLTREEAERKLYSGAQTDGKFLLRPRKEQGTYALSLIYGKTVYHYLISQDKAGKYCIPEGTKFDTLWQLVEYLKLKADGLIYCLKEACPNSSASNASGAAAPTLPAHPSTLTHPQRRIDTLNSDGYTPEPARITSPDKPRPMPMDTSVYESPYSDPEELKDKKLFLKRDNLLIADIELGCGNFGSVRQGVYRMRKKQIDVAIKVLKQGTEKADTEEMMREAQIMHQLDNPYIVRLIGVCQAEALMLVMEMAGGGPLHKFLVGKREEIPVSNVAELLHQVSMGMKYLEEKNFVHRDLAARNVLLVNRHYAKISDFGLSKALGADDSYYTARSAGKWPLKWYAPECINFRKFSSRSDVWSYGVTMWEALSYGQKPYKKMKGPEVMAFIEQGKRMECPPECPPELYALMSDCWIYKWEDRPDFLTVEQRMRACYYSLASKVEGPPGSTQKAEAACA

Measured: residual activity

Chain of LIM domain kinase 2 (Homo sapiens) (P53671 whole entry, looked up, the tested form may be a part): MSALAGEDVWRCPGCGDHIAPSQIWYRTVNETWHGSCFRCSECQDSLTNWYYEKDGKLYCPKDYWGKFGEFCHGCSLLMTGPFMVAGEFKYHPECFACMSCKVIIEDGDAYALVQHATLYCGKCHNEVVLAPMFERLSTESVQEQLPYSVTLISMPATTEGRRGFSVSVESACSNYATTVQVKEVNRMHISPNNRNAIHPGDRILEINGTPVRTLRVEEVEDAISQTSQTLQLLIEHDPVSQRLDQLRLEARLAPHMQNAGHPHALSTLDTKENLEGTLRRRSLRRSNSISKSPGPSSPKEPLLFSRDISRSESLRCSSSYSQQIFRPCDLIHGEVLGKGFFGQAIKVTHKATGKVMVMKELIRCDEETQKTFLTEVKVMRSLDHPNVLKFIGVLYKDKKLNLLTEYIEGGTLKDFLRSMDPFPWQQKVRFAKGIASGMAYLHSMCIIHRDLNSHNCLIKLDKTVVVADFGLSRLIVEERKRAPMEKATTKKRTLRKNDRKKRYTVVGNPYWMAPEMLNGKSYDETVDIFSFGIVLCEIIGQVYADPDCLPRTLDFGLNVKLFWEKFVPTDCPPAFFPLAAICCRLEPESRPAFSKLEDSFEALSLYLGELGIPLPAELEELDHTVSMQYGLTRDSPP
Chain of Fibroblast growth factor receptor 3 (Homo sapiens) (P22607 23-806 limits assumed): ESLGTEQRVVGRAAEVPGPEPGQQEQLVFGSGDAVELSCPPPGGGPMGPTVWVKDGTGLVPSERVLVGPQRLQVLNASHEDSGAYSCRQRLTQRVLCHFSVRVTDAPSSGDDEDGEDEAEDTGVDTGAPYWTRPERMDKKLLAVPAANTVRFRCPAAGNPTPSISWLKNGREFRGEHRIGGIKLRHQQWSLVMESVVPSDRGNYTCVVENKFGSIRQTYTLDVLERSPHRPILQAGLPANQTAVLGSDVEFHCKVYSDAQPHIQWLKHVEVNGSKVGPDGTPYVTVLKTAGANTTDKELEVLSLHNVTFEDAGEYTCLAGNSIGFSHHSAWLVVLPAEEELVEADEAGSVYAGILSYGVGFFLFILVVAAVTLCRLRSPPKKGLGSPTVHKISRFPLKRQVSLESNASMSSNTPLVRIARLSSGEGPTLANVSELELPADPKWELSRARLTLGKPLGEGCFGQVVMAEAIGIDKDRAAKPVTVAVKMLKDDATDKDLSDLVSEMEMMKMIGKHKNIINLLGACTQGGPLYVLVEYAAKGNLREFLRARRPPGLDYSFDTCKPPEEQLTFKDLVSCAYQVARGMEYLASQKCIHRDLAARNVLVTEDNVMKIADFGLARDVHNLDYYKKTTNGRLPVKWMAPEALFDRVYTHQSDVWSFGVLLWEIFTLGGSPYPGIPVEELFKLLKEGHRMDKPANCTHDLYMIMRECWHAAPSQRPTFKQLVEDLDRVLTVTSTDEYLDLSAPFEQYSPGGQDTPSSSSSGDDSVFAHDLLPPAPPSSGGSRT
Chain of Serine/threonine-protein kinase pim-1 (Homo sapiens) (P11309 whole entry, looked up): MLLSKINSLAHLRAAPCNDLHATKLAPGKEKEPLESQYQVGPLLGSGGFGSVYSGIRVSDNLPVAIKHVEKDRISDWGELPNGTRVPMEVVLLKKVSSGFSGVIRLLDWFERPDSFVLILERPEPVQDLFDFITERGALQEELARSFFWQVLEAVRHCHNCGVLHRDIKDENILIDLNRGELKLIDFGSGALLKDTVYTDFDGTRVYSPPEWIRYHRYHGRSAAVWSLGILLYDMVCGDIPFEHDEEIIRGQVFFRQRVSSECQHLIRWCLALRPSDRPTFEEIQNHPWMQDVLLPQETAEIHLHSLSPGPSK
Chain of Cyclin-G-associated kinase (Homo sapiens) (O14976 whole entry): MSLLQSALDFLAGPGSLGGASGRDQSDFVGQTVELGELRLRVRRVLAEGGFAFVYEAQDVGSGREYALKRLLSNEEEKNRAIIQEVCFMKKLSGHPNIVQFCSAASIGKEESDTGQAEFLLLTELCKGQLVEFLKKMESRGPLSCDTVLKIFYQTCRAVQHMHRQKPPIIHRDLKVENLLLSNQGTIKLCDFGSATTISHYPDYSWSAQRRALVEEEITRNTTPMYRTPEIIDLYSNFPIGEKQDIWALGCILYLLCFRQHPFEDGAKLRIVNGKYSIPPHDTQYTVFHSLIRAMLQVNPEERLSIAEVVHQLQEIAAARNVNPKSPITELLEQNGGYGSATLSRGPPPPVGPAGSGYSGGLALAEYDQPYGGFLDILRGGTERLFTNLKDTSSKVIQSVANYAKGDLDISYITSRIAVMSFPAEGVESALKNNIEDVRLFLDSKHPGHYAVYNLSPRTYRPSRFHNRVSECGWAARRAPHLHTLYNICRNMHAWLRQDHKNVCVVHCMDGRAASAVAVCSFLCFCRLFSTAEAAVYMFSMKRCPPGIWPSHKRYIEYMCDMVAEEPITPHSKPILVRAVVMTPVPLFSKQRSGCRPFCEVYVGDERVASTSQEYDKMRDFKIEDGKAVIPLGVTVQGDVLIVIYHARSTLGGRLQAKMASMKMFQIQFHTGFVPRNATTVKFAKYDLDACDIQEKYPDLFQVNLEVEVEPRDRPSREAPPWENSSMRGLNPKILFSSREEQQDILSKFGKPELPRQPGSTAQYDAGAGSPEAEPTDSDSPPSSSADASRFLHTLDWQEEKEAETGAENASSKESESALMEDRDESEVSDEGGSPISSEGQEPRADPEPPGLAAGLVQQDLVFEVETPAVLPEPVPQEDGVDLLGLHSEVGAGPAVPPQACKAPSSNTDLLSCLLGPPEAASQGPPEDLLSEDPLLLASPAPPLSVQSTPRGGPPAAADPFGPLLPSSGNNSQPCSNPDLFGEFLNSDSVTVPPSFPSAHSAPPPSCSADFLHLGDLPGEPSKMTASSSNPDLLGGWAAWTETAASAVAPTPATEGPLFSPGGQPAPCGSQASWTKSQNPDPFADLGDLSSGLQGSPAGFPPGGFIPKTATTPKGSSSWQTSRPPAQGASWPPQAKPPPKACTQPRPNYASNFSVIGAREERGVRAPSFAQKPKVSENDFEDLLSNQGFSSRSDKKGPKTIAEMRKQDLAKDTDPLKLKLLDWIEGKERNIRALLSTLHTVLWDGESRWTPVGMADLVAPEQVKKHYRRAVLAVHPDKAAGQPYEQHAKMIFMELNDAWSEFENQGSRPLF
Chain of Cyclin-dependent kinase-like 2 (Homo sapiens) (Q92772 whole entry): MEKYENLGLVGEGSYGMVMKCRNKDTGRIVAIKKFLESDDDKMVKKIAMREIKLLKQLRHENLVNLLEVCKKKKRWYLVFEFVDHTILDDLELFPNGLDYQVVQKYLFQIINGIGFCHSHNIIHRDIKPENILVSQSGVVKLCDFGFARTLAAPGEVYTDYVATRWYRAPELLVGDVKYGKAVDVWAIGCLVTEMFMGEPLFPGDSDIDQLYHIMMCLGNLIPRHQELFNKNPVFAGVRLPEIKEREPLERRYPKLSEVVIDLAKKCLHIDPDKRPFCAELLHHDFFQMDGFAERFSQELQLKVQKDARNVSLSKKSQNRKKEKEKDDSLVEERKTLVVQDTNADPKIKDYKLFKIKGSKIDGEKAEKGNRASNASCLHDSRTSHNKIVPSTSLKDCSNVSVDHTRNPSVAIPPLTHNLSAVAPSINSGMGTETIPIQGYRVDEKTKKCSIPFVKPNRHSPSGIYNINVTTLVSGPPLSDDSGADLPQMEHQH
Chain of Serine/threonine-protein kinase tousled-like 1 (Homo sapiens) (Q9UKI8 whole entry): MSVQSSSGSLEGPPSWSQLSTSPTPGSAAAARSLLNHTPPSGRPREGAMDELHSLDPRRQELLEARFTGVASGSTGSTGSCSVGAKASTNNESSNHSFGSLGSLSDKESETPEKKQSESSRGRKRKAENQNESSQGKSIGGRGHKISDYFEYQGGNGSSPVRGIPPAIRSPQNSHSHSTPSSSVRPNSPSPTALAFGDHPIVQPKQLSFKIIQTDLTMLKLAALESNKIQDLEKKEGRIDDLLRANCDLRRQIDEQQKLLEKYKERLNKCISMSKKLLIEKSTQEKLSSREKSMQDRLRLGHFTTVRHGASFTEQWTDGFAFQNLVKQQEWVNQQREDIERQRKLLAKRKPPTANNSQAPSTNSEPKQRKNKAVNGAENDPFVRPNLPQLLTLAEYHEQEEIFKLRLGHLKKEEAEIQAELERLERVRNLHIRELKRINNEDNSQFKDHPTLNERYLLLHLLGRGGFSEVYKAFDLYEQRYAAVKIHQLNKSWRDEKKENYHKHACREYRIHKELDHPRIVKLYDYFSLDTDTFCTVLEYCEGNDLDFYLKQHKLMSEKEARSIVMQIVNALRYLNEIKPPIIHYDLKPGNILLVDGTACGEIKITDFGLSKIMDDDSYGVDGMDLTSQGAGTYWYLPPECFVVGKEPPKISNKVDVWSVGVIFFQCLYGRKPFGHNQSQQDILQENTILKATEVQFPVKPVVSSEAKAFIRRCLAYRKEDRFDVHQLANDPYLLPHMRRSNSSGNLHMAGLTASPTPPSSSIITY
Chain of Serine/threonine-protein kinase MAK (Homo sapiens) (P20794 whole entry): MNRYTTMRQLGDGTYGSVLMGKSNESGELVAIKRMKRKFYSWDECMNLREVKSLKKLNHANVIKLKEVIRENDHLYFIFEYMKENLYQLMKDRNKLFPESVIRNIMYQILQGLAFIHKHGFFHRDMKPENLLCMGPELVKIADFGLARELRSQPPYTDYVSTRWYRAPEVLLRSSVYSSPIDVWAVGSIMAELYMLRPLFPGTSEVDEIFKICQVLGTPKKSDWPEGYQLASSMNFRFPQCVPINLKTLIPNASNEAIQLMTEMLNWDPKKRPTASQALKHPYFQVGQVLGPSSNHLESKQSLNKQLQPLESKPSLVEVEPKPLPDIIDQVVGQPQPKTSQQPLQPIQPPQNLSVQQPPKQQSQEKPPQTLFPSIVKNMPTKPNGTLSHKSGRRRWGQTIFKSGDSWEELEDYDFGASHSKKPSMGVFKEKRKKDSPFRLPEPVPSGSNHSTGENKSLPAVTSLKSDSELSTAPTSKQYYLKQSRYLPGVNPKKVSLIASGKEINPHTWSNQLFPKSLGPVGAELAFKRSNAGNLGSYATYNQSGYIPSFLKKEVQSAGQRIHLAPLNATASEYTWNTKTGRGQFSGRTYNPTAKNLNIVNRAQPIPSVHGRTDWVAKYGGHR

Cc1c[nH]c2nccc(Oc3c(F)cc(Nc4cc(Cl)nc(N)n4)cc3F)c12 [BAY-549]
inactive: [1] 99% | [2] 86% | [3] 95% | [4] 97% | [5] 93% | [6] 100% | [7] 100% | [8] 100% | [9] 76% | [10] 100% | [11] 81% | [12] 70% | [13] 79% | [14] 100% | [15] 81% | [16] 84% | [17] 57% | [18] 100% | [19] 98% | [20] 100% | [21] 100% | [22] 100% | [23] 90% | [24] 83% | [25] 94% | [26] 74% | [27] 87% | [28] 96% | [29] 100% | [30] 76% | [31] 100%

Cn1cc(Cl)c2c(Oc3c(F)cc(Nc4cc(Cl)nc(N)n4)cc3F)ccnc21 [BAY-4900]
inactive: [1] 100% | [2] 99% | [3] 100% | [4] 100% | [5] 100% | [6] 98% | [7] 99% | [8] 100% | [9] 96% | [10] 100% | [11] 97% | [12] 63% | [13] 100% | [14] 100% | [15] 99% | [16] 97% | [17] 89% | [18] 100% | [19] 91% | [20] 100% | [21] 75% | [22] 100% | [23] 100% | [24] 100% | [25] 97% | [26] 80% | [27] 100% | [28] 100% | [29] 100% | [30] 81% | [31] 100%
